Residue numbers refer to the chain shown, from its start. “Also recorded” adds a separate entry of the source. Read-outs that look alike come from different tables or passages of the source.

We go through 2 compounds from article PMC12696353, “Structural insights into endogenous agonist selectivity of aminergic receptors from the octopamine β2 receptor” (PNAS Nexus, 2025).

Assay [1] deals with T1, is-octβ2R T60^1.41P mutant (Ixodes scapularis, UniProt A0ACM8E5E8).
T1 sequence (A0ACM8E5E8 1-384 T39P): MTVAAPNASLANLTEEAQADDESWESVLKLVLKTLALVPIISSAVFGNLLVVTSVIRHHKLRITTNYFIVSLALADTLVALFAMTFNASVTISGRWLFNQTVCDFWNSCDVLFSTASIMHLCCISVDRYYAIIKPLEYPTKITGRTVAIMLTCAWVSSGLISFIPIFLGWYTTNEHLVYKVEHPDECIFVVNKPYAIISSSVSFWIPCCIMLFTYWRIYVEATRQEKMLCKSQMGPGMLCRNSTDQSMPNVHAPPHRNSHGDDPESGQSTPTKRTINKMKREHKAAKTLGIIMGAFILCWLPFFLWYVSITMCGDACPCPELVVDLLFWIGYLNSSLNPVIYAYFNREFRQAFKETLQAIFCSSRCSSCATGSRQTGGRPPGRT
Kind of assay: TGFα shedding assay, amitraz-resistant mutant T60^1.41P. It is filed as cell-based. The note with it: Table S4. On the procedure: (§1) The TGFα shedding assay was performed as previously described ([28]). […] The cells were transfected using lipofectamine 2000 with plasmids encoding alkaline phosphatase–tagged TGFα (AP-TGFα) (2.5 ng/mL), is-octβ2Rs (1 ng/mL), and Gαq/s (0.5 ng/mL). After 24 h, the cells were washed with phosphate-buffered saline and resuspended in Hank's balanced salt solution (HBSS) (supplemented with 5 mM HEPES [pH 7.4]). The cells (90 μL/well) were plated in a 96-well plate and incubated with 10 μL of HBSS solution containing various concentrations of compounds for 1 h at 37 °C. Following centrifugation (200 × g, 2 min), 80 μL of the supernatant was transferred to a separate 96-well plate. Subsequently, 80 µL of 2× para-nitrophenyl phosphate (pNPP) buffer (containing 10 mM pNPP in 40 mM Tris–HCl [pH 9.5], 40 mM NaCl, and 10 mM MgCl2) was added to both the supernatant and cell-containing plates. The optical density at 405 nm of both plates was measured before and after a 1 h incubation at room temperature using a microplate reader (SpectraMax iD3, Molecular Devices, San Jose, CA, United States). AP-TGFα release was calculated using the following formulas:
(§2) ΔOD405=OD450(1h)−OD405(0h)AP−TGFαinsupernatant(%)=(ΔOD405Sup/[ΔOD450Sup+ΔOD405Cell])×125AP−TGFαrelease(%)=AP−TGFαinsupernatantunderastimulatedcondition(%)−AP−TGFαinsupernatantunderavehicle−treatedcondition
(§3) where OD405 (0 h) and […] represent the OD405 before and after a 1 h incubation, respectively, and OD405Sup and OD405Cell represent the OD405 of supernatant and cell plates, respectively. For all pharmacological analyses, nonlinear regression curve fitting was performed with a 3-parameter sigmoid model (Hill coefficient = 1) using Prism 8 (GraphPad Software, La Jolla, CA, United States).

Assay [2] addresses is-octβ2R S203^5.46A mutant (Ixodes scapularis, UniProt A0ACM8E5E8, S203A). The experiment in a line: TGFα shedding assay, mutant S203^5.46A. It is filed as cell-based. As for the experimental part:
as §1
(§4) ΔOD405=OD450(1h)−OD405(0h)AP−TGFαinsupernatant(%)=(ΔOD405Sup/[ΔOD450Sup+ΔOD405Cell])×125AP−TGFαrelease(%)=AP−TGFαinsupernatantunderastimulatedcondition(%)−AP−TGFαinsupernatantunderavehicle−treatedcondition […]

Assay [3] deals with is-octβ2R S199^5.42A mutant. Kind of assay: TGFα shedding assay, mutant S199^5.42A. It is filed as cell-based, Ixodes scapularis. On the procedure: as §1, §2, §3
Assay [4] addresses T2, is-octβ2R I61^1.42F mutant (Ixodes scapularis, UniProt A0ACM8E5E8, I40F).
T2 sequence (A0ACM8E5E8 1-384 I40F): T1 sequence (A0ACM8E5E8 1-384 T39P) with P39T, I40F
Kind of assay: TGFα shedding assay, amitraz-resistant mutant I61^1.42F. In kind it is cell-based. The conditions noted are these: Table S4. As for the experimental part:
as §1, §2, §3

For assay [5], the target named is is-octβ2R S114^3.36A mutant (Ixodes scapularis, UniProt A0ACM8E5E8, S114A). Kind of assay: TGFα shedding assay, mutant S114^3.36A. The conditions noted are these: Table S6. In kind it is cell-based. As for the experimental part:
as §1, §4

Assay [6] has as its target is-octβ2R V111^3.33A mutant (Ixodes scapularis, UniProt A0ACM8E5E8, V111A). Kind of assay: TGFα shedding assay, mutant V111^3.33A. It is filed as cell-based. As for the experimental part:
as §1, §4

Assay [7] concerns the target T3, is-octβ2R N87^2.61S mutant (Ixodes scapularis, UniProt A0ACM8E5E8, N87S).
T3 sequence (A0ACM8E5E8 1-384 N87S): T1 sequence (A0ACM8E5E8 1-384 T39P) with P39T, N87S
Kind of assay: TGFα shedding assay, amitraz-resistant mutant N87^2.61S. The conditions noted are these: Table S4. In kind it is cell-based. As for the experimental part:
as §1, §2, §3

In assay [8] the test system is is-octβ2R F189^45.52A mutant. Kind of assay: TGFα shedding assay, mutant F189^45.52A. The conditions noted are these: Table S6. It is filed as cell-based, Ixodes scapularis. As for the experimental part:
as §1, §4

Assay [9] concerns the target is-octβ2R T115^3.37A mutant (Ixodes scapularis, UniProt A0ACM8E5E8, T115A). Kind of assay: TGFα shedding assay, mutant T115^3.37A. It is filed as cell-based. On the procedure:
as §1, §4

For assay [10], the target named is is-octβ2R F328^7.39A mutant (Ixodes scapularis, UniProt A0ACM8E5E8, F328A). The experiment in a line: TGFα shedding assay, mutant F328^7.39A. It is filed as cell-based. On the procedure:
as §1, §4

The mark [11] stands for this setting: Table S6, read-out: logEC50 (converted).

Consider `CN/C=N/c1ccc(C)cc1C` [DPMF, N-2,4-dimethylphenyl-N′-methylformamidine], for which the EC50 in assay [1] was 7.94 nM; in [2] (setting [11]), 1.26 nM; in [2] (read-out: EC50) it was 1.3 nM; in assay [4], 7.94 nM; in [5], 251 nM; in [6] (setting [11]) it was 251 nM. Besides, the EC50 in [6] (read-out: EC50) is 320 nM; in assay [7], 7.94 nM; in assay [9] (setting [11]), 5.01 nM; in assay [9] (read-out: EC50) it was 5 nM. The logEC50 entry in assay [3] (Table S6) is “signal observed only at 10-5 M; also recorded: signal observed only at 10^−5 M”; in [8], “no activity”.
As to `NCC(O)c1ccc(O)cc1` (centres unmarked) [Octopamine, octopamine], the EC50 in assay [1] was 10 nM; in [10] (setting [11]), 1000 nM; in assay [10] (stated as a range in text, read-out: EC50), around 1000 nM; in assay [4], 7.94 nM; in assay [7] it was 10 nM. Also, the logEC50 entry was “signal observed only at 10-5 M” in assay [3] (Table S6); “signal observed only at 10^−5 M” in [3] (Table S6, listed as octopamine); “no activity” in assay [8].
